Reference: paper PMC9657394, “Purification and Characterization of Bot33: A Non-Toxic Peptide from the Venom of Buthus occitanus tunetanus Scorpion” (Molecules, 2022)

Legend:
[1] = tested on: Shaker IR; assay: Two-electrode voltage-clamp, Shaker IR expressed in Xenopus laevis oocytes; format: cell-based, Drosophila; conditions: 1 µM, 250-ms depolarization to 0 mV from −90 mV, pH 7.4, 18–22 °C
Excerpt: (§1) For the expression of Kv channels (mammalian rKv1.1, rKv1.2, hKv1.3, rKv1.4, rKv1.5, rKv1.6, and Drosophila Shaker IR) in Xenopus laevis oocytes, the linearized plasmids were transcribed using the T7 or SP6 mMESSAGE-mMACHINE transcription kit (Ambion, Carlsbad, CA, USA). The harvesting of stage V–VI oocytes from anesthetized female Xenopus laevis frog was previously described in compliance with the regulations of the European Union (EU) concerning the welfare of laboratory animals as declared in Directive 2010/63/EU. The use of X. laevis oocytes was approved by the Animal Ethics Committee of the KU Leuven with the license number P186/2019. Oocytes were injected with 50 nl of cRNA at a concentration of 1 ng/nl using a microinjector (Drummond Scientific, Broomall, PA, USA). […]
(§2) Two-electrode voltage-clamp recordings were performed at room temperature (18–22 °C) using a Geneclamp 500 amplifier (Molecular Devices, Downingtown, PA, USA) controlled by a pClamp data acquisition system (Axon Instruments, Union City, CA, USA). Whole-cell currents from oocytes were recorded 1–4 days after injection. […] All data were analyzed using pClamp Clampfit 10.1 (Molecular Devices, Downingtown, PA, USA) and Origin 7.5 software (Originlab, Northampton, MA, USA).

[2] = tested on: hKv1.3; assay: Two-electrode voltage-clamp, Kv1.3 expressed in Xenopus laevis oocytes; format: cell-based, mammalian; conditions: 1 µM, 250-ms depolarization to 0 mV from −90 mV, pH 7.4, 18–22 °C
Excerpt: as §1, §2

[3] = tested on: mice; parameters: method as in PMID 1730708; conditions: ref [22]; cited from earlier work

ChTx: control toxin tested on Kv1.3 and Shaker IR
effect on Shaker IR current [1]: completely inhibited the current
effect on Kv1.3 current [2]: completely inhibited the current

KTX: toxin with LD50 ≈ 24 ng/20 g mice
LD50 [3]: ≈ 24 ng/20 g mice
